# From patent publication US11986532B2 (Arvinas Operations, Inc., priority 2021, dated 2024)
# Where two headings read alike, the source gives them in different places.
# Biological target: T1, BCL6 (Homo sapiens, UniProt P41182)
# T1 construct: endogenous in cells; host or cells: T47D breast cancer epithelial cells
# Experiment: Immunofluorescence protocol for high content imaging of BCL6 (degradation) in T47D cells, 3 days compound treatment
# Assay type: cell-based
# Settings: for DC50: read-out: Mean DC50 (nM)* category; for Dmax: read-out: Mean Dmax (%)** category
# Summary of the method: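 T47D, RPMI1640/10% FBS; cpd 11-pt 3-fold, top 0.1 or 1 μM final; 3 d, 37° C. Fix 4% PFA, perm 0.1% Triton, block 3% BSA; anti-BCL6 1:300 o/n 4° C; Alexa-488 2°, CellMask-647, Hoechst. Imaged 10×, 4 fields/well.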
# [1] = T47D cells, 3 days compound treatment
Compound,DC50 [1],Dmax [1],Dmax (T47D),DC50
"CNC(=O)COc1cc2cc(Nc3nc(N4CCC(O[C@H]5C[C@H](N6CCC(c7ccc8c(c7F)CN(C7CCC(=O)NC7=O)C8=O)CC6)C5)CC4)ncc3Cl)ccc2n(C(C)C)c1=O (some centres unmarked) [Compound 81, 2-({6-[(5-chloro-2-{4-[(1r,3r)-3-{4-[2-(2,6-dioxopiperidin-3-yl)-4-fluoro-1-oxo-2,3-dihydro-1H-isoindol-5-yl]piperidin-1-yl}cyclobutoxy]piperidin-1-yl}pyrimidin-4-yl)amino]-2-oxo-1-(propan-2-yl)-1,2-dihydroquinolin-3-yl}oxy)-N-methylacetamide]",< 10 nM,50 to 70%,,
"CNC(=O)COc1cc2cc(Nc3nc(N4CCC[C@H](COc5cccc6c5C(=O)N(C5CCC(=O)NC5=O)C6=O)C4)ncc3Cl)ccc2n(CCN(C)C)c1=O (stereo partly drawn) [Compound 141, 2-{[6-({5-chloro-2-[(3S)-3-({[2-(2,6-dioxopiperidin-3-yl)-1,3-dioxo-2,3-dihydro-1H-isoindol-4-yl]oxy}methyl)piperidin-1-yl]pyrimidin-4-yl}amino)-1-[2-(dimethylamino)ethyl]-2-oxo-1,2-dihydroquinolin-3-yl]oxy}-N-methylacetamide]",≥ 100 nM,,,
CNC(=O)COc1cc2c(F)c(Nc3nc(N4CCC(O[C@H]5C[C@H](N6CCN(c7ccc8c(c7C)C(=O)N(C7CCC(=O)NC7=O)C8=O)[C@H](C)C6)C5)CC4)ncc3Cl)ccc2n(C(C)C)c1=O (some centres unmarked) [Compound 199],< 10 nM,≥ 70%,,
"CNC(=O)COc1cc2cc(Nc3nc(N4CCC(O[C@H]5C[C@H](N6CC7(CN(c8ccc9c(c8)C(=O)N(C8CCC(=O)NC8=O)C9=O)C7)C6)C5)CC4)ncc3Cl)ccc2n(C(C)C)c1=O (some centres unmarked) [Compound 311, 2-({6-[(5-chloro-2-{4-[(1r,3r)-3-{6-[2-(2,6-dioxopiperidin-3-yl)-1,3-dioxo-2,3-dihydro-1H-isoindol-5-yl]-2,6-diazaspiro[3.3]heptan-2-yl}cyclobutoxy]piperidin-1-yl}pyrimidin-4-yl)amino]-2-oxo-1-(propan-2-yl)-1,2-dihydroquinolin-3-yl}oxy)-N-methylacetamide]",,,50 to 70%,< 10 nM
"CC[C@@H]1CN([C@H]2C[C@H](OC3CCN(c4ncc(Cl)c(Nc5ccc6c(c5)cc(OCC(=O)NC)c(=O)n6C(C)C)n4)CC3)C2)CCN1c1ccc2c(c1C)C(=O)N(C1CCC(=O)NC1=O)C2=O (stereo partly drawn) [Compound 287, 2-({6-[(5-chloro-2-{4-[(1r,3r)-3-[(3R)-4-[2-(2,6-dioxopiperidin-3-yl)-4-methyl-1,3-dioxo-2,3-dihydro-1H-isoindol-5-yl]-3-ethylpiperazin-1-yl]cyclobutoxy]piperidin-1-yl}pyrimidin-4-yl)amino]-2-oxo-1-(propan-2-yl)-1,2-dihydroquinolin-3-yl}oxy)-N-methylacetamide]",,,≥ 70%,< 10 nM
"CNC(=O)COc1cc2cc(Nc3nc(N4CCC(O[C@H]5C[C@H](N6CCN(c7ccc8c(c7)C(=O)N(C7CCC(=O)NC7=O)C8=O)[C@@H](C)C6)C5)CC4)ncc3Cl)ccc2n(C(C)C)c1=O (stereo partly drawn) [Compound 391, 2-({6-[(5-chloro-2-{4-[(1r,3r)-3-[(3S)-4-[2-(2,6-dioxopiperidin-3-yl)-1,3-dioxo-2,3-dihydro-1H-isoindol-5-yl]-3-methylpiperazin-1-yl]cyclobutoxy]piperidin-1-yl}pyrimidin-4-yl)amino]-2-oxo-1-(propan-2-yl)-1,2-dihydroquinolin-3-yl}oxy)-N-methylacetamide]",,,≥ 70%,< 10 nM
"CNC(=O)COc1cc2cc(Nc3nc(N4CCC(O[C@H]5C[C@H](N6CCN(c7ccc8c(c7)CN([C@H]7CCC(=O)NC7=O)C8=O)C(C)(C)C6)C5)CC4)ncc3Cl)ccc2n(C(C)C)c1=O [Compound 211, 2-({6-[(5-chloro-2-{4-[(1r,3r)-3-{4-[2-(2,6-dioxopiperidin-3-yl)-1-oxo-2,3-dihydro-1H-isoindol-5-yl]-3,3-dimethylpiperazin-1-yl}cyclobutoxy]piperidin-1-yl}pyrimidin-4-yl)amino]-2-oxo-1-(propan-2-yl)-1,2-dihydroquinolin-3-yl}oxy)-N-methylacetamide]",,,≥ 70%,< 10 nM
"CNC(=O)COc1cc2cc(Nc3nc(N4CCC(O[C@H]5CC[C@H](Oc6ccc7c(c6)C(=O)N(C6CCC(=O)NC6=O)C7=O)CC5)CC4)ncc3Cl)ccc2n(C(C)C)c1=O (some centres unmarked) [Compound 30, 2-[(6-{[5-chloro-2-(4-{[(1r,4r)-4-{[2-(2,6-dioxopiperidin-3-yl)-1,3-dioxo-2,3-dihydro-1H-isoindol-5-yl]oxy}cyclohexyl]oxy}piperidin-1-yl)pyrimidin-4-yl]amino}-2-oxo-1-(propan-2-yl)-1,2-dihydroquinolin-3-yl)oxy]-N-methylacetamide]",10 to 50 nM,50 to 70%,,
"CNC(=O)COc1cc2cc(Nc3nc(N4CCC(O[C@H]5C[C@H](N6CCC(c7cc8c(cc7C(F)(F)F)C(=O)N(C7CCC(=O)NC7=O)C8)CC6)C5)CC4)ncc3Cl)ccc2n(C(C)C)c1=O (some centres unmarked) [Compound 212, 2-({6-[(5-chloro-2-{4-[(1r,3r)-3-{4-[2-(2,6-dioxopiperidin-3-yl)-1-oxo-6-(trifluoromethyl)-2,3-dihydro-1H-isoindol-5-yl]piperidin-1-yl}cyclobutoxy]piperidin-1-yl}pyrimidin-4-yl)amino]-2-oxo-1-(propan-2-yl)-1,2-dihydroquinolin-3-yl}oxy)-N-methylacetamide]",,,50 to 70%,< 10 nM
"CNC(=O)COc1cc2cc(Nc3nc(N4CCC(CN5CCC6(CN(c7ccc8c(c7)C(=O)N(C7CCC(=O)NC7=O)C8=O)C6)C(F)(F)C5)CC4)ncc3Cl)ccc2n(C)c1=O (centres unmarked) [Compound 127, 2-{[6-({5-chloro-2-[4-({2-[2-(2,6-dioxopiperidin-3-yl)-1,3-dioxo-2,3-dihydro-1H-isoindol-5-yl]-5,5-difluoro-2,7-diazaspiro[3.5]nonan-7-yl}methyl)piperidin-1-yl]pyrimidin-4-yl}amino)-1-methyl-2-oxo-1,2-dihydroquinolin-3-yl]oxy}-N-methylacetamide]",< 10 nM,< 50%,,
"CNC(=O)COc1cc2cc(Nc3ncncc3Cl)ccc2n(CCOc2ccc3c(c2)C(=O)N(C2CCC(=O)NC2=O)C3=O)c1=O (centres unmarked) [Compound 146, 2-({6-[(5-chloropyrimidin-4-yl)amino]-1-(2-{[2-(2,6-dioxopiperidin-3-yl)-1,3-dioxo-2,3-dihydro-1H-isoindol-5-yl]oxy}ethyl)-2-oxo-1,2-dihydroquinolin-3-yl}oxy)-N-methylacetamide]",< 10 nM,,,

# Now from value to compound, other results behind:
DC50 [1],Dmax [1],Compound,Dmax (T47D),DC50
< 10 nM,< 50%,"CNC(=O)COc1cc2cc(Nc3nc(N4CCN(C(=O)C5CCC6(CCN(c7ccc8c(c7)CN(C7CCC(=O)NC7=O)C8=O)C6)C5)CC4)ncc3Cl)ccc2n(C(C)C)c1=O (centres unmarked) [Compound 66, 2-[(6-{[5-chloro-2-(4-{2-[2-(2,6-dioxopiperidin-3-yl)-1-oxo-2,3-dihydro-1H-isoindol-5-yl]-2-azaspiro[4.4]nonane-7-carbonyl}piperazin-1-yl)pyrimidin-4-yl]amino}-2-oxo-1-(propan-2-yl)-1,2-dihydroquinolin-3-yl)oxy]-N-methylacetamide]",,
< 10 nM,< 50%,"CNC(=O)COc1cc2cc(Nc3nc(N4CCC(CN5CC6(CCN(c7ccc8c(c7)CN(C7CCC(=O)NC7=O)C8=O)C6)CC5=O)CC4)ncc3Cl)ccc2n(C(C)C)c1=O (centres unmarked) [Compound 54, 2-{[6-({5-chloro-2-[4-({7-[2-(2,6-dioxopiperidin-3-yl)-1-oxo-2,3-dihydro-1H-isoindol-5-yl]-3-oxo-2,7-diazaspiro[4.4]nonan-2-yl}methyl)piperidin-1-yl]pyrimidin-4-yl}amino)-2-oxo-1-(propan-2-yl)-1,2-dihydroquinolin-3-yl]oxy}-N-methylacetamide]",,
< 10 nM,50 to 70%,"CNC(=O)COc1cc2cc(Nc3nc(N4CCC(F)(CN5CCC6(CC5)CCN(c5cc(F)cc7c5CN(C5CCC(=O)NC5=O)C7=O)CC6)CC4)ncc3Cl)ccc2n(C(C)C)c1=O (centres unmarked) [Compound 73, 2-{[6-({5-chloro-2-[4-({9-[2-(2,6-dioxopiperidin-3-yl)-6-fluoro-1-oxo-2,3-dihydro-1H-isoindol-4-yl]-3,9-diazaspiro [5.5]undecan-3-yl}methyl)-4-fluoropiperidin-1-yl]pyrimidin-4-yl}amino)-2-oxo-1-(propan-2-yl)-1,2-dihydroquinolin-3-yl]oxy}-N-methylacetamide]",,
< 10 nM,50 to 70%,"CNC(=O)COc1cc2cc(Nc3nc(N4CCN(C(C)(C)C5CCN(c6cc7c(cc6F)C(=O)N(C6CCC(=O)NC6=O)C7)CC5)CC4)ncc3Cl)ccc2n(C(C)C)c1=O (centres unmarked) [Compound 68, 2-{[6-({5-chloro-2-[4-(2-{1-[2-(2,6-dioxopiperidin-3-yl)-6-fluoro-1-oxo-2,3-dihydro-1H-isoindol-5-yl]piperidin-4-yl}propan-2-yl)piperazin-1-yl]pyrimidin-4-yl}amino)-2-oxo-1-(propan-2-yl)-1,2-dihydroquinolin-3-yl]oxy}-N-methylacetamide]",,
< 10 nM,≥ 70%,"CNC(=O)COc1cc2cc(Nc3nc(N4CCC(F)(CN5CCC6(CC5)CCN(c5cccc7c5C(=O)N(C5CCC(=O)NC5=O)C7=O)CC6)CC4)ncc3Cl)ccc2n(C(C)C)c1=O (centres unmarked) [Compound 62, 2-{[6-({5-chloro-2-[4-({9-[2-(2,6-dioxopiperidin-3-yl)-1,3-dioxo-2,3-dihydro-1H-isoindol-4-yl]-3,9-diazaspiro[5.5]undecan-3-yl}methyl)-4-fluoropiperidin-1-yl]pyrimidin-4-yl}amino)-2-oxo-1-(propan-2-yl)-1,2-dihydroquinolin-3-yl]oxy}-N-methylacetamide]",,
< 10 nM,≥ 70%,CNC(=O)COc1cc2cc(Nc3nc(N4CCC(OC5CN([C@H]6CC[C@@H](c7ccc8c(c7F)CN(C7CCC(=O)NC7=O)C8=O)CC6)C5)CC4)ncc3Cl)ccc2n(C(C)C)c1=O (some centres unmarked) [Compound 184],,
